Reference: the supplement of paper PMC10307832

Assays:
Experiment in all cases: relative viability (nuclei count vs DMSO), 5 days (fraction); higher = more cells survive
Idelalisib + Decitabine = compound: CC[C@H](Nc1ncnc2[nH]cnc12)c1nc2cccc(F)c2c(=O)n1-c1ccccc1 [Idelalisib] + Nc1ncn([C@H]2C[C@H](O)[C@@H](CO)O2)c(=O)n1 [Decitabine] (partner 2 µM)
Method in brief: (§1)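 One day after seeding in 1536-well plates, lung cancer cell lines were dosed by pin tool. Dosing was either single-drug or a fixed anchor-drug dose plus five library-drug doses (not always all listed) in √10 steps. After 5 days, nuclei were stained in one fix-and-stain step and counted on 4× images, and relative viability is the nuclei count of treated wells over that of vehicle wells, given as the median of duplicate plates.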

Idelalisib + AZD7762 = compound: CC[C@H](Nc1ncnc2[nH]cnc12)c1nc2cccc(F)c2c(=O)n1-c1ccccc1 [Idelalisib] + NC(=O)Nc1cc(-c2cccc(F)c2)sc1C(=O)N[C@H]1CCCNC1 [AZD7762] (partner 0.2 µM)
Method in brief: as §1

Idelalisib + Lapatinib = compound: CC[C@H](Nc1ncnc2[nH]cnc12)c1nc2cccc(F)c2c(=O)n1-c1ccccc1 [Idelalisib] + CS(=O)(=O)CCNCc1ccc(-c2ccc3ncnc(Nc4ccc(OCc5cccc(F)c5)c(Cl)c4)c3c2)o1 [Lapatinib] (partner 2 µM)
Method in brief: as §1

Pemetrexed + Navitoclax = compound: Nc1nc2[nH]cc(CCc3ccc(C(=O)N[C@@H](CCC(=O)O)C(=O)O)cc3)c2c(=O)[nH]1 [Pemetrexed] + CC1(C)CCC(c2ccc(Cl)cc2)=C(CN2CCN(c3ccc(C(=O)NS(=O)(=O)c4ccc(N[C@H](CCN5CCOCC5)CSc5ccccc5)c(S(=O)(=O)C(F)(F)F)c4)cc3)CC2)C1 [Navitoclax] (partner 0.5 µM)
Method in brief: as §1

## HCC-44
Idelalisib + Decitabine; first compound 0.04 µM
  relative viability: 1.07
Idelalisib + Decitabine; first compound 0.1265 µM
  relative viability: 0.927
Idelalisib + Decitabine; first compound 0.4 µM
  relative viability: 0.978
Idelalisib + Decitabine; first compound 1.265 µM
  relative viability: 0.98
Idelalisib + Decitabine; first compound 4 µM
  relative viability: 0.91
Idelalisib + AZD7762; first compound 0.04 µM
  relative viability: 1.04
Idelalisib + AZD7762; first compound 0.1265 µM
  relative viability: 0.998
Idelalisib + AZD7762; first compound 0.4 µM
  relative viability: 1.03
Idelalisib + AZD7762; first compound 1.265 µM
  relative viability: 0.991
Idelalisib + AZD7762; first compound 4 µM
  relative viability: 1.11
Idelalisib + Lapatinib; first compound 0.04 µM
  relative viability: 1.02
Idelalisib + Lapatinib; first compound 0.1265 µM
  relative viability: 1.01
Idelalisib + Lapatinib; first compound 0.4 µM
  relative viability: 1
Idelalisib + Lapatinib; first compound 1.265 µM
  relative viability: 1.07
Idelalisib + Lapatinib; first compound 4 µM
  relative viability: 1.14
Pemetrexed + Navitoclax; first compound 0.002 µM
  relative viability: 0.864
Pemetrexed + Navitoclax; first compound 0.006325 µM
  relative viability: 0.836
Pemetrexed + Navitoclax; first compound 0.02 µM
  relative viability: 1.02
Pemetrexed + Navitoclax; first compound 0.06325 µM
  relative viability: 0.929
Pemetrexed + Navitoclax; first compound 0.2 µM
  relative viability: 0.866

## A-427
Idelalisib + Decitabine; first compound 0.04 µM
  relative viability: 0.57
Idelalisib + Decitabine; first compound 0.1265 µM
  relative viability: 0.564
Idelalisib + Decitabine; first compound 0.4 µM
  relative viability: 0.545
Idelalisib + Decitabine; first compound 1.265 µM
  relative viability: 0.562
Idelalisib + Decitabine; first compound 4 µM
  relative viability: 0.507
Idelalisib + AZD7762; first compound 0.04 µM
  relative viability: 0.773
Idelalisib + AZD7762; first compound 0.1265 µM
  relative viability: 0.748
Idelalisib + AZD7762; first compound 0.4 µM
  relative viability: 0.66
Idelalisib + AZD7762; first compound 1.265 µM
  relative viability: 0.442
Idelalisib + AZD7762; first compound 4 µM
  relative viability: 0.624
Idelalisib + Lapatinib; first compound 0.04 µM
  relative viability: 1.11
Idelalisib + Lapatinib; first compound 0.1265 µM
  relative viability: 1.06
Idelalisib + Lapatinib; first compound 0.4 µM
  relative viability: 1.04
Idelalisib + Lapatinib; first compound 1.265 µM
  relative viability: 1.07
Idelalisib + Lapatinib; first compound 4 µM
  relative viability: 1.04
Pemetrexed + Navitoclax; first compound 0.002 µM
  relative viability: 0.891
Pemetrexed + Navitoclax; first compound 0.006325 µM
  relative viability: 0.979
Pemetrexed + Navitoclax; first compound 0.02 µM
  relative viability: 0.978
Pemetrexed + Navitoclax; first compound 0.06325 µM
  relative viability: 1.04
Pemetrexed + Navitoclax; first compound 0.2 µM
  relative viability: 0.954

## LXF-289
Idelalisib + Decitabine; first compound 0.04 µM
  relative viability: 0.438
Idelalisib + Decitabine; first compound 0.1265 µM
  relative viability: 0.402
Idelalisib + Decitabine; first compound 0.4 µM
  relative viability: 0.368
Idelalisib + Decitabine; first compound 1.265 µM
  relative viability: 0.438
Idelalisib + Decitabine; first compound 4 µM
  relative viability: 0.395
Idelalisib + AZD7762; first compound 0.04 µM
  relative viability: 1.16
Idelalisib + AZD7762; first compound 0.1265 µM
  relative viability: 1.09
Idelalisib + AZD7762; first compound 0.4 µM
  relative viability: 1.15
Idelalisib + AZD7762; first compound 1.265 µM
  relative viability: 0.838
Idelalisib + AZD7762; first compound 4 µM
  relative viability: 1.16
Idelalisib + Lapatinib; first compound 0.04 µM
  relative viability: 0.945
Idelalisib + Lapatinib; first compound 0.1265 µM
  relative viability: 0.901
Idelalisib + Lapatinib; first compound 0.4 µM
  relative viability: 0.906
Idelalisib + Lapatinib; first compound 1.265 µM
  relative viability: 0.96
Idelalisib + Lapatinib; first compound 4 µM
  relative viability: 0.943
Pemetrexed + Navitoclax; first compound 0.002 µM
  relative viability: 0.881
Pemetrexed + Navitoclax; first compound 0.006325 µM
  relative viability: 1
Pemetrexed + Navitoclax; first compound 0.02 µM
  relative viability: 0.994
Pemetrexed + Navitoclax; first compound 0.06325 µM
  relative viability: 0.993
Pemetrexed + Navitoclax; first compound 0.2 µM
  relative viability: 0.929

## NCI-H2087
Idelalisib + Decitabine; first compound 0.04 µM
  relative viability: 0.357
Idelalisib + Decitabine; first compound 0.1265 µM
  relative viability: 0.337
Idelalisib + Decitabine; first compound 0.4 µM
  relative viability: 0.217
Idelalisib + Decitabine; first compound 1.265 µM
  relative viability: 0.244
Idelalisib + Decitabine; first compound 4 µM
  relative viability: 0.269
Idelalisib + AZD7762; first compound 0.04 µM
  relative viability: 1.34
Idelalisib + AZD7762; first compound 0.1265 µM
  relative viability: 1.33
Idelalisib + AZD7762; first compound 0.4 µM
  relative viability: 1.32
Idelalisib + AZD7762; first compound 1.265 µM
  relative viability: 1.19
Idelalisib + AZD7762; first compound 4 µM
  relative viability: 1.32
Idelalisib + Lapatinib; first compound 0.04 µM
  relative viability: 1.15
Idelalisib + Lapatinib; first compound 0.1265 µM
  relative viability: 1.06
Idelalisib + Lapatinib; first compound 0.4 µM
  relative viability: 1.13
Idelalisib + Lapatinib; first compound 1.265 µM
  relative viability: 1.11
Idelalisib + Lapatinib; first compound 4 µM
  relative viability: 1.18
Pemetrexed + Navitoclax; first compound 0.002 µM
  relative viability: 0.946
Pemetrexed + Navitoclax; first compound 0.006325 µM
  relative viability: 0.951
Pemetrexed + Navitoclax; first compound 0.02 µM
  relative viability: 0.951
Pemetrexed + Navitoclax; first compound 0.06325 µM
  relative viability: 0.749
Pemetrexed + Navitoclax; first compound 0.2 µM
  relative viability: 0.746

## NCI-H596
Idelalisib + Decitabine; first compound 0.04 µM
  relative viability: 0.994
Idelalisib + Decitabine; first compound 0.1265 µM
  relative viability: 0.962
Idelalisib + Decitabine; first compound 0.4 µM
  relative viability: 1.06
Idelalisib + Decitabine; first compound 1.265 µM
  relative viability: 1.15
Idelalisib + Decitabine; first compound 4 µM
  relative viability: 0.887
Idelalisib + AZD7762; first compound 0.04 µM
  relative viability: 1.02
Idelalisib + AZD7762; first compound 0.1265 µM
  relative viability: 1.11
Idelalisib + AZD7762; first compound 0.4 µM
  relative viability: 1.24
Idelalisib + AZD7762; first compound 1.265 µM
  relative viability: 0.853
Idelalisib + AZD7762; first compound 4 µM
  relative viability: 0.912
Idelalisib + Lapatinib; first compound 0.04 µM
  relative viability: 1.04
Idelalisib + Lapatinib; first compound 0.1265 µM
  relative viability: 1.13
Idelalisib + Lapatinib; first compound 0.4 µM
  relative viability: 0.895
Idelalisib + Lapatinib; first compound 1.265 µM
  relative viability: 1.16
Idelalisib + Lapatinib; first compound 4 µM
  relative viability: 0.934
Pemetrexed + Navitoclax; first compound 0.002 µM
  relative viability: 0.98
Pemetrexed + Navitoclax; first compound 0.006325 µM
  relative viability: 0.811
Pemetrexed + Navitoclax; first compound 0.02 µM
  relative viability: 0.828
Pemetrexed + Navitoclax; first compound 0.06325 µM
  relative viability: 0.898
Pemetrexed + Navitoclax; first compound 0.2 µM
  relative viability: 0.419

## PC-14
Idelalisib + Decitabine; first compound 0.04 µM
  relative viability: 0.295
Idelalisib + Decitabine; first compound 0.1265 µM
  relative viability: 0.194
Idelalisib + Decitabine; first compound 0.4 µM
  relative viability: 0.215
Idelalisib + Decitabine; first compound 1.265 µM
  relative viability: 0.166
Idelalisib + Decitabine; first compound 4 µM
  relative viability: 0.209
Idelalisib + AZD7762; first compound 0.04 µM
  relative viability: 0.313
Idelalisib + AZD7762; first compound 0.1265 µM
  relative viability: 0.446
Idelalisib + AZD7762; first compound 0.4 µM
  relative viability: 0.334
Idelalisib + AZD7762; first compound 1.265 µM
  relative viability: 0.265
Idelalisib + AZD7762; first compound 4 µM
  relative viability: 0.301
Idelalisib + Lapatinib; first compound 0.04 µM
  relative viability: 0.329
Idelalisib + Lapatinib; first compound 0.1265 µM
  relative viability: 0.299
Idelalisib + Lapatinib; first compound 0.4 µM
  relative viability: 0.309
Idelalisib + Lapatinib; first compound 1.265 µM
  relative viability: 0.306
Idelalisib + Lapatinib; first compound 4 µM
  relative viability: 0.252
Pemetrexed + Navitoclax; first compound 0.002 µM
  relative viability: 0.976
Pemetrexed + Navitoclax; first compound 0.006325 µM
  relative viability: 0.976
Pemetrexed + Navitoclax; first compound 0.02 µM
  relative viability: 1.05
Pemetrexed + Navitoclax; first compound 0.06325 µM
  relative viability: 0.428
Pemetrexed + Navitoclax; first compound 0.2 µM
  relative viability: 0.129

## NCI-H1915
Idelalisib + Decitabine; first compound 0.04 µM
  relative viability: 0.256
Idelalisib + Decitabine; first compound 0.1265 µM
  relative viability: 0.249
Idelalisib + Decitabine; first compound 0.4 µM
  relative viability: 0.269
Idelalisib + Decitabine; first compound 1.265 µM
  relative viability: 0.253
Idelalisib + Decitabine; first compound 4 µM
  relative viability: 0.256
Idelalisib + AZD7762; first compound 0.04 µM
  relative viability: 0.766
Idelalisib + AZD7762; first compound 0.1265 µM
  relative viability: 0.687
Idelalisib + AZD7762; first compound 0.4 µM
  relative viability: 0.643
Idelalisib + AZD7762; first compound 1.265 µM
  relative viability: 0.552
Idelalisib + AZD7762; first compound 4 µM
  relative viability: 0.68
Idelalisib + Lapatinib; first compound 0.04 µM
  relative viability: 1.06
Idelalisib + Lapatinib; first compound 0.1265 µM
  relative viability: 1
Idelalisib + Lapatinib; first compound 0.4 µM
  relative viability: 0.96
Idelalisib + Lapatinib; first compound 1.265 µM
  relative viability: 1.11
Idelalisib + Lapatinib; first compound 4 µM
  relative viability: 0.922
Pemetrexed + Navitoclax; first compound 0.002 µM
  relative viability: 0.773
Pemetrexed + Navitoclax; first compound 0.006325 µM
  relative viability: 0.757
Pemetrexed + Navitoclax; first compound 0.02 µM
  relative viability: 0.772
Pemetrexed + Navitoclax; first compound 0.06325 µM
  relative viability: 0.764
Pemetrexed + Navitoclax; first compound 0.2 µM
  relative viability: 0.783

## NCI-H647
Idelalisib + Decitabine; first compound 0.04 µM
  relative viability: 0.332
Idelalisib + Decitabine; first compound 0.1265 µM
  relative viability: 0.408
Idelalisib + Decitabine; first compound 0.4 µM
  relative viability: 0.3
Idelalisib + Decitabine; first compound 1.265 µM
  relative viability: 0.318
Idelalisib + Decitabine; first compound 4 µM
  relative viability: 0.193
Idelalisib + AZD7762; first compound 0.04 µM
  relative viability: 0.546
Idelalisib + AZD7762; first compound 0.1265 µM
  relative viability: 0.631
Idelalisib + AZD7762; first compound 0.4 µM
  relative viability: 0.409
Idelalisib + AZD7762; first compound 1.265 µM
  relative viability: 0.198
Idelalisib + AZD7762; first compound 4 µM
  relative viability: 0.397
Idelalisib + Lapatinib; first compound 0.04 µM
  relative viability: 1.13
Idelalisib + Lapatinib; first compound 0.1265 µM
  relative viability: 1.27
Idelalisib + Lapatinib; first compound 0.4 µM
  relative viability: 0.834
Idelalisib + Lapatinib; first compound 1.265 µM
  relative viability: 0.95
Idelalisib + Lapatinib; first compound 4 µM
  relative viability: 0.546
Pemetrexed + Navitoclax; first compound 0.002 µM
  relative viability: 1.13
Pemetrexed + Navitoclax; first compound 0.006325 µM
  relative viability: 0.987
Pemetrexed + Navitoclax; first compound 0.02 µM
  relative viability: 1.15
Pemetrexed + Navitoclax; first compound 0.06325 µM
  relative viability: 0.954
Pemetrexed + Navitoclax; first compound 0.2 µM
  relative viability: 0.308
